From PubChem BioAssay AID1117319 (Southern Research Institute, 2015)
Several values for one entry are separate records, joined by “and”; a condition that tells them apart may be missing. Identical values can stand only once. Results filed as inconclusive are left out.

Each compound was assayed against Virion infectivity factor (Human immunodeficiency virus type 1 group M subtype B (isolate BH10)) + Virion infectivity factor (Human immunodeficiency virus type 1 group M subtype B (isolate BRU/LAI)) + Virion infectivity factor (Human immunodeficiency virus type 1 group M subtype B (isolate PCV12)) + Virion infectivity factor (Human immunodeficiency virus type 1 group M subtype B (isolate HXB2)) + DNA dC->dU-editing enzyme APOBEC-3G (Homo sapiens) (UniProt P69720+P69721+P69722+P69723+Q9HC16) (assay: inhibitors of Vif binding to APOBEC3G peptide, primary screen, biochemical, TR-FRET, GST-Vif 1-94, biotin-A3G peptide, dose response retest (AID 1117319);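 further: Vif residues 1-94 fused to GST binding biotinylated APOBEC3G peptide 110-148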).

Compound | IC50
O=C1NN(c2ccc(Cl)cc2)C(=O)/C1=C\c1ccc(-c2cccc(C(=O)O)c2)o1 | 5.76 µM
Cc1c(C(=O)N2CCN(c3ccc(F)cc3)CC2)sc2nc(-c3ccccc3)cn12 | 48.7 µM
Cc1cccc(NC(=S)NC(=O)/C=C/c2ccco2)c1 | 17.5 µM
CCOc1cccc(=O)c2c(C)n(-c3ccc(C(=O)O)cc3)c(C)c12 | 4.49 µM
Cc1ccc(-c2nnn(CC(=O)N(c3ccc(F)cc3)C(C(=O)NC3CCCC3)c3ccco3)n2)o1 (centres undefined) | 85.8 µM
O=C(NNC(=O)c1ccccc1O)c1cc2ccccc2o1 | 16.5 µM
N#Cc1c(-c2ccco2)cc(-c2ccccc2)[nH]c1=O | 14 µM
Cc1nn(Cc2ccccc2)c(C)c1C(=O)OCC(=O)c1cc(C)n(C2CC2)c1C | 80.5 µM
CCOC(=O)C1CCN(C(=O)Nc2ccc3nc(-c4ccco4)c(-c4ccco4)nc3c2)CC1 | < 0.432 µM
Oc1cc2c(cc1O)[C@H]1c3ccc(O)c(O)c3OC[C@@]1(O)C2 | 0.57 µM
COC(=O)CCC(=O)OC1(C)C(=O)C2=COC(c3ccc(OC)cc3)=CC2=C(Br)C1=O (centres undefined) | 13.7 µM
CCOc1cc(N2CCOCC2)c(OCC)cc1NC(C)C(=O)N1CCN(CC)CC1 (centres undefined) | 23.9 µM
CC[n+]1c(/C=C2/C=C(C)CC(C)(C)C2)sc2ccc(OC)cc21 | 21.7 µM
CN(CCO)c1cc(Sc2nc3ccccc3s2)c2nonc2c1[N+](=O)[O-] | 42.6 µM
Cc1ccc(C(=O)N/N=C\c2cc(Br)c(Br)o2)cn1 | 6.24 µM
CS(=O)(=O)c1ccc2c(c1)SC1=NC(=O)/C(=C/c3ccco3)C(=N)N12 | 6.32 µM
O=C(O)C1=NN(c2cc(Cl)c(S(=O)(=O)O)cc2Cl)C(=O)C1 | 85.7 µM
Oc1cc2c(cc1O)[C@@H](c1ccccc1)CNCC2 | 48.1 µM
O=C1NC(=O)N(c2ccc(Cl)cc2)C(=O)/C1=C\c1ccc(Sc2nc3ccccc3[nH]2)o1 | 11.7 µM
COc1ccc(C2=NOC(C(=O)NCc3cccs3)C2)cc1OC (centres undefined) | 89.8 µM
CN(CC(=O)Nc1c(Cl)cccc1Cl)C(=O)c1cccc(-n2cccc2)c1 | 31.3 µM
Cc1onc(-c2c(F)cccc2Cl)c1C(=O)Nc1nnc(C2CC2)s1 | 10.7 µM
CCCC(=O)N(CCc1ccc(OC)cc1)Cc1nc2ccccc2c(=O)[nH]1 | 14.4 µM
CCOC(=O)Cc1cc(=O)n2[nH]c(C)cc2n1 | 75.3 µM
CCN1C(=O)/C(=C\c2ccc([N+](=O)[O-])s2)C(=O)NC1=S | 1.53 µM
O=C(/C=C/c1cccs1)N1CCN(c2ccc(O)cc2)CC1 | 20.9 µM
Cc1c(C(=O)O)cccc1-n1c(C)cc(/C=N/Nc2ccc([N+](=O)[O-])cn2)c1C | 12.6 µM

Compound | IC50
O=C(NC(=S)N1CCCc2ccccc21)c1ccccc1 | 28.4 µM
CCC(c1nnnn1C(C)(C)CC)N(CCCO)Cc1cc2cc(C)cc(C)c2[nH]c1=O (centres undefined) | 0.49 µM
O=C(c1cc(COc2cccc3cccnc23)on1)N1CCC[C@H]1CO | 88.7 µM
CC(=O)NCc1c(Cl)cccc1-n1cccc1 | 72.7 µM
Cc1cc(/C=N/Nc2ccc([N+](=O)[O-])cn2)c(C)n1-c1ccc(C(=O)O)cc1 | 3.25 µM
CCOc1cc(N2CCOCC2)c(OCC)cc1NC(=O)CSc1ncn[nH]1 | 11.9 µM
CC[n+]1ccc(C)c2cc(S(=O)C(F)(F)F)ccc21 (centres undefined) | 8.8 µM
O=S(=O)(c1ccc2nc(-c3ccco3)c(-c3ccco3)nc2c1)N1CCOCC1 | 6.38 µM and 3.81 µM
O=C(Nc1ccc(F)cc1F)c1noc2c1CCC2 | 12.8 µM
COc1ccc(NC(=O)/C(C#N)=C\c2ccc(Br)o2)cc1 | 6.29 µM
Cc1cc2c(c(=O)o1)C(c1ccc([N+](=O)[O-])o1)C(C#N)=C(N)O2 (centres undefined) | 2.53 µM
O=C(CCS(=O)(=O)c1ccc(Br)cc1)NCCc1ccccc1 | 28.9 µM
O=C(Nc1ccc(Br)cn1)c1coc(=O)c(Br)c1 | 13 µM
O=C1C(Cl)=C(Oc2ccccc2)C(=O)c2ccccc21 | 23.6 µM
Nc1ccc(N(CCO)CCO)cc1 | 2.17 µM
O=C(CCCCCN1C(=O)CCC1=O)Nc1ccc(Cl)c(C(F)(F)F)c1 | 3.93 µM
O=C(CCc1ccc(S(=O)(=O)NCCc2ccccc2)cc1)Nc1ccc2c(c1)OCO2 | 43.5 µM
O=C(CC1C(=O)NCCN1Cc1ccc(F)cc1)NCCN1CCCc2ccccc21 (centres undefined) | 97.4 µM
O=C(Nc1ccccc1N1CCCC1)c1ccc(Br)o1 | 46.2 µM
Oc1ccc(NCc2cccc(OCc3ccc(F)cc3)c2)cc1 | 2.37 µM
C=CCSC1=N/C(=C\C=C\c2ccco2)C(=O)S1 | 1.05 µM
O=C1NC(=Nc2ccc(O)cc2)S/C1=C\C=C\c1ccco1 | 5.1 µM
O=C(CN1CCN(S(=O)(=O)c2ccc(Cl)s2)CC1)NCc1ccc(Cl)cc1 | 7.67 µM
CCC(C)Cn1c(O)cc2nn(-c3nc4ccccc4s3)c(=O)c-2c1C (centres undefined) | 2.65 µM
CC1=CC(C)(C)Nc2ccc(OC(=O)c3cccnc3)cc21 | 30.4 µM
C=CCN(CC=C)C(=S)NC(=O)c1ccc([N+](=O)[O-])cc1 | 66.8 µM
COc1ccc(N2CCN(C(=O)c3c(-c4ccccc4)noc3C)CC2)cc1 | 31.1 µM
